Results from PMC6926482, “LCO Receptors Involved in Arbuscular Mycorrhiza Are Functional for Rhizobia Perception in Legumes” (Current Biology, 2019).

Key:
SlLYK10c-YFP = target: T1, SlLYK10c-YFP; assay: radioligand competition on membrane fractions; format: binding, Solanum lycopersicum; details: competition with LCO-V(C18:1,NMe,35S) 1-2 nM
T1 construct: gene LYK10; SlLYK10 extracellular region fused to TM/ICR of Medicago truncatula NFP, YFP kept (about 102 kDa with 6 predicted N-glycans); expressed in Nicotiana benthamiana leaves, membrane fraction; with Serine/threonine receptor-like kinase NFP (Medicago truncatula; transmembrane and intracellular region fused to the SlLYK10 extracellular region)

PhLYK10-YFP = target: T2, PhLYK10-YFP; assay: radioligand competition on membrane fractions; format: binding, Petunia hybrida; details: competition with LCO-V(C18:1,NMe,35S) 1-2 nM; competitor tested at 1 μM only; pH 6
T2 construct: gene LYK10; expressed in Nicotiana benthamiana leaves, membrane fraction

[1] = competitor tested at 1 μM only, pH 6
[2] = 25 mM Na-cacodylate pH 6, 1 mM CaCl2, 1 mM MgCl2, n = 3

Row | Ki (SlLYK10c-YFP; [1]) [nM] | Ki (PhLYK10-YFP) [nM] | Ki (SlLYK10c-YFP; [2]) [nM] | Compound
1 | > 1000 | > 1000 | – | CC(=O)N[C@H]1[C@H](O[C@H]2[C@H](O)[C@@H](NC(C)=O)C(O)O[C@@H]2CO)O[C@H](CO)[C@@H](O[C@@H]2O[C@H](CO)[C@@H](O[C@@H]3O[C@H](CO)[C@@H](O)[C@H](O)[C@H]3NC(C)=O)[C@H](O)[C@H]2NC(C)=O)[C@@H]1O (stereo partly drawn) [CO4]
2 | > 1000 | > 1000 | – | CC(=O)N[C@H]1[C@H](O[C@H]2[C@H](O)[C@@H](NC(C)=O)[C@H](O[C@H]3[C@H](O)[C@@H](NC(C)=O)[C@H](O[C@H]4[C@H](O)[C@@H](NC(C)=O)C(O)O[C@@H]4CO)O[C@@H]3CO)O[C@@H]2CO)O[C@H](CO)[C@@H](O[C@@H]2O[C@H](CO)[C@@H](O[C@@H]3O[C@H](CO)[C@@H](O[C@@H]4O[C@H](CO)[C@@H](O[C@@H]5O[C@H](CO)[C@@H](O)[C@H](O)[C@H]5NC(C)=O)[C@H](O)[C@H]4NC(C)=O)[C@H](O)[C@H]3NC(C)=O)[C@H](O)[C@H]2NC(C)=O)[C@@H]1O (stereo partly drawn) [CO8]
3 | – | – | 354 ± 60 | CCCCCCCCCCCCCCCC(=O)N[C@H]1[C@H](O[C@H]2[C@H](O)[C@@H](NC(C)=O)[C@H](O[C@H]3[C@H](O)[C@@H](NC(C)=O)[C@H](O[C@H]4[C@H](O)[C@@H](NC(C)=O)C(O)O[C@@H]4CO)O[C@@H]3CO)O[C@@H]2CO)O[C@H](CO)[C@@H](O)[C@@H]1O (stereo partly drawn) [LCO-IV(C16:0)]
4 | – | – | 192 ± 52 | CCCCCCCCCCCCCCCC(=O)N[C@H]1[C@H](O[C@H]2[C@H](O)[C@@H](NC(C)=O)[C@H](O[C@H]3[C@H](O)[C@@H](NC(C)=O)[C@H](O[C@H]4[C@H](O)[C@@H](NC(C)=O)C(O)O[C@@H]4COS(=O)(=O)O)O[C@@H]3CO)O[C@@H]2CO)O[C@H](CO)[C@@H](O)[C@@H]1O (stereo partly drawn) [LCO-IV(C16:0,S)]
